Measured values taken from patent US11384078B2, “5,6-fused-bicyclic compounds and compositions for the treatment of parasitic diseases” (NOVARTIS AG, priority 2017, dated 2022).
Where two headings read alike, the source gives them in different places.

Assays:
Format in all cases: cell-based
[1] = tested on: Leishmania donovani axenic amastigote; assay: In vitro assay for growth inhibition of Leishmania donovani axenic amastigote (Cell TiterGlo luminescence); settings: Leishmania donovani, read-out: L. donovani amastigotes EC50
Description: Abbreviations as used herein below have the corresponding meaning: • CPRG Chlorophenol Red-P-D-galactopyranoside • ATP adenosine triphosphate • BSA bovine serum albumin • DMSO dimethyl sulfoxide • FBS fetal bovine serum • PBS phosphate buffered saline • RPMI 1640 Rosweli Park Memorial Institute (RPMI) 1640 medium In Vitro Assay for Growth Inhibition of Leishmania donovani Axenic Amastiqote
Leishmania donovani axenic amastigote parasites are grown at 37° C., 5% CO2 in media made of RPMI 1640, 4 mM L-glutamine, 20% heat inactivated FBS, 100 units/ml of penicillin and 100 μg/ml of streptomycin, 23 μM folic acid, 100 μM adenosine, 22 mM D-glucose, 25 mM MES. The pH of media is adjusted to 5.5 at 37° C. using HCl. 20 μL of media is first dispensed into 384 well plates and 100 nL of the compounds of invention in DMSO are added to the plate wells. At the same time control compounds and DMSO are added to plates to serve as the positive and negative controls, respectively. 40 μL of parasite culture (9600 parasites) are then added to the plate wells. The plates are then placed into incubators. After two days incubation, 20 μL of Cell TiterGlo® (Promega) is added to the plate wells. The luminescence signal of each well is measured using the Envision reader (Perkin Elmer).

[2] = tested on: Trypanosoma cruzi amastigotes cultured in 3T3 fibroblast cells; assay: Assay for growth inhibition of kinetoplastid parasite Trypanosoma cruzi (beta-galactosidase Tulahuen strain, CPRG readout); settings: Trypanosoma cruzi, Fibroblast, read-out: Buckner infectious T. cruzi EC50
Source text: Assay for Growth Inhibition of Kinetoplastid Parasite Trypanosoma cruzi
Compounds of the invention can be assayed for inhibitor activity against Trypanosoma cruzi amastigotes cultured in 3T3 fibroblast cells. The assay is done using the mammalian stage (amastigotes) of T. cruzi that replicates in the intracellular space of host cells. The host cells are initially infected with the culture-derived trypomastigotes that rapidly invade and then divide as amastigotes. The protocol uses the Tulahuen strain of T. cruzi that has been engineered to express the E. coli beta-galactosidase gene (Lac-Z) (Antimicr. Agents Chemoth. 40:2592, 1996). This allows for a colorimetric readout by using the substrate CPRG and an absorbance plate reader.
3T3 fibroblast cells are re-suspended in RPMI-1640 medium without phenol red medium supplemented with 10% FBS (heat inactivated), 100 μg/ml penicillin, and 100 μg/ml streptomycin. Forty μL of suspension (1,000 cells) is dispensed into 384-well plates and incubated overnight at 37° C. temperature and in atmosphere containing 5% CO2. The following day, 100 nL of compounds of the invention in DMSO are added to plate wells containing 3T3 cells. At the same time control compounds (benznidazole and nifurtimox) and DMSO are added to plates to serve as the positive and negative controls, respectively. After that, 10 μL of media containing 10,000 T. cruzi trypomastigotes are added to each plate well and plates are placed back into incubators. After 6 day incubation, 10 μL of reagent solution (0.6 mM CPRG, 0.6% NP-40 in PBS) is added to plates and incubated at room temperature for 2 hours. Absorbance is then measured on SpectraMax GEMINI fluorimeter to determine relative number of T. cruzi cells present in each plate well.

[3] = tested on: Trypanosoma brucei brucei (Lister 427) strain; assay: Assay for growth inhibition against Trypanosoma brucei brucei (Cell TiterGlo ATP luminescence); settings: read-out: T. Brucei (HAT) EC50
Description: Assay for Growth Inhibition Against Trypanosoma brucei brucei
The proliferation is quantified by the addition of Cell TiterGlo® (Promega®) a luminescent cell viability assay that measures the number of viable cells in culture based on the quantification of cellular ATP amount, which is an indicator of metabolically active cells.
Trypanosoma brucei brucei (Lister 427) strain was grown in Hirumi 9 (HMI-9) media supplemented with 10% v/v fetal bovine serum (FBS) and 10% v/v serum plus. For measurement of cell proliferation inhibition, test compounds were three fold serially diluted in duplicates to 384-well white plates, resulting in 10 dilutions for each compound. A volume of 40 μL of T. b. brucei culture (10,000 parasites/mL) was added to each well, and the assay plates were incubated at 37° C. for 2 days in a CO2 incubator. Growth inhibition was monitored by measuring ATP levels, which, is used as a surrogate marker for growth. Relative luminescence units were measured using TECAN® M1000 after 30 min of adding 40 μl of Cell TiterGlo®. IC50 values were determined by analyzing the data using HELIOS software. IC50 is defined as the lowest concentration of the compound that inhibited 50% growth of the T. b. brucei wild type strain compared to untreated controls.

[4] = L. donovani axenic amastigotes in vitro
[5] = Trypanosoma brucei, T. brucei brucei (Lister 427)

| EC50 [1, 4] [nM] | EC50 [3, 5] [nM] | Compound | EC50 ([3]; T. brucei brucei (Lister 427)) [nM] | further results |
| --- | --- | --- | --- | --- |
| 41 | < 23 | O=C(Nc1ccc(F)c(-n2cc3cc(-c4ccccn4)cnc3n2)c1)C1CC1 [Compound 12, N-{4-fluoro-3-[5-(pyridin-2-yl)-2H-pyrazolo[3,4-b]pyridin-2-yl]phenyl}cyclopropanecarboxamide] |  |  |
| 71 | < 23 | O=C(CC1CC1)Nc1ccc(F)c(-n2cc3cc(-c4ccccn4)cnc3n2)c1 [Compound 13, 2-cyclopropyl-N-{4-fluoro-3-[5-(pyridin-2-yl)-2H-pyrazolo[3,4-b]pyridin-2-yl]phenyl}acetamide] |  |  |
| 210 | 120 | CC(C)c1cnc2nn(-c3cc(NC(=O)C4CC(F)C4)ccc3F)cc2c1 (centres unmarked) [Compound 121, 3-fluoro-N-{4-fluoro-3-[5-(propan-2-yl)-2H-pyrazolo[3,4-b]pyridin-2-yl]phenyl}cyclobutane-1-carboxamide] |  |  |
| 7.3 | < 23 | O=C(Nc1ccc(F)c(-n2cc3cc(N4CC5CCC(C4)O5)cnc3n2)c1)N1CC(F)C1 [Compound 184, 3-fluoro-N-[4-fluoro-3-(5-{8-oxa-3-azabicyclo[3.2.1]octan-3-yl}-2H-pyrazolo[3,4-b]pyridin-2-yl)phenyl}azetidine-1-carboxamide] |  |  |
| 200 | < 23 | COCCNc1cnc2nn(-c3cc(NC(=O)N4CC(F)C4)ccc3F)cc2c1 [Compound 185, 3-fluoro-N-(4-fluoro-3-{5-[(2-methoxyethyl)amino]-2H-pyrazolo[3,4-b]pyridin-2-yl]phenyl)azetidine-1-carboxamide] |  |  |
| 460 | 240 | O=C(Nc1ccc(F)c(-n2cc3cc(N4CCn5cnnc5C4)cnc3n2)c1)N1CC(F)C1 [Compound 186, 3-fluoro-N-[4-fluoro-3-(5-{5H,6H,7H,8H-[1,2,4]triazolo[4,3-a]pyrazin-7-yl}-2H-pyrazolo[3,4-b]pyridin-2-yl)phenyl}azetidine-1-carboxamide] |  |  |
| 2.4 | < 23 | O=C(Nc1ccc(F)c(-n2cc3cc(-c4ncccc4Cl)cnc3n2)c1)N1CC(F)C1 [Compound 188, N-{3-[5-(3-chloropyridin-2-yl)-2H-pyrazolo[3,4-b]pyridin-2-yl]-4-fluorophenyl}-3-fluoroazetidine-1-carboxamide] |  |  |
| 3 | < 23 | O=C(Nc1ccc(F)c(-n2cc3cc(-c4cccnc4)cnc3n2)c1)N1CC(F)C1 [Compound 189, 3-fluoro-N-{4-fluoro-3-[5-(pyridin-3-yl)-2H-pyrazolo[3,4-b]pyridin-2-yl]phenyl}azetidine-1-carboxamide] |  |  |
| 7 | 13 | [2H]C([2H])([2H])c1nc(C)c(C(=O)Nc2ccc(F)c(-n3cc4cc(-c5ncccc5C)cnc4n3)c2)o1 [Compound 278, N-{4-fluoro-3-[5-(3-methylpyridin-2-yl)-2H-pyrazolo[3,4-b]pyridin-2-yl]phenyl}-2-(^2H3)methyl-4-methyl-1,3-oxazole-5-carboxamide] |  |  |
| 176 | 260 | O=C(Nc1ccc(F)c(-n2cc3cc(C4CCCCO4)cnc3n2)c1)N1CCC1 (centres unmarked) [Compound 288, N-(4-fluoro-3-(5-(tetrahydro-2H-pyran-2-yl)-2H-pyrazolo[3,4-b]pyridin-2-yl)phenyl)azetidine-1-carboxamide] |  |  |
| 199 | 208 | O=C(Nc1ccc(F)c(-n2cc3cc(C4COCCO4)cnc3n2)c1)N1CCC1 (centres unmarked) [Compound 289, N-{3-[5-(1,4-dioxan-2-yl)-2H-pyrazolo[3,4-b]pyridin-2-yl]-4-fluorophenyl}azetidine-1-carboxamide] |  |  |

The next lines start with the compound.

| Compound | EC50 [1, 4] [nM] | EC50 [3, 5] [nM] | EC50 ([3]; T. brucei brucei (Lister 427)) [nM] | further results |
| --- | --- | --- | --- | --- |
| Cc1nc(C)c(C(=O)Nc2ccc(F)c(-n3cc4cc(-c5ncccc5C)cnc4n3)c2)o1 [Compound 1, N-(4-fluoro-3-(5-(3-methylpyridin-2-yl)-2H-pyrazolo[3,4-b]pyridin-2-yl)phenyl)-2,4-dimethyloxazole-5-carboxamide] |  |  |  | EC50 [1]: 7.1 nM; EC50 [2]: 5.2 nM; EC50 ([3]; Trypanosoma brucei): < 23 nM |
| Cc1cccnc1-c1cnc2nn(-c3cc(NC(=O)N4CC[C@@H](F)C4)ccc3F)cc2c1 [Compound 4, (R)-3-fluoro-N-(4-fluoro-3-(5-(3-methylpyridin-2-yl)-2H-pyrazolo[3,4-b]pyridin-2-yl)phenyl)pyrrolidine-1-carboxamide] | 1.3 | < 23 |  | EC50 ([2]; T. cruzi amastigotes in 3T3 fibroblast cells): 1 nM |
| O=C(Nc1ccc(F)c(-n2cc3cc(N4CC(F)C4)cnc3n2)c1)N1CCC1 [Compound 40, N-{4-fluoro-3-[5-(3-fluoroazetidin-1-yl)-2H-pyrazolo[3,4-b]pyridin-2-yl]phenyl}azetidine-1-carboxamide] |  |  | < 23 |  |
| O=C(Nc1ccc(F)c(-n2cc3cc(N4CC(F)C4)cnc3n2)c1)N1CC(F)C1 [Compound 58, 3-fluoro-N-{4-fluoro-3-[5-(3-fluoroazetidin-1-yl)-2H-pyrazolo[3,4-b]pyridin-2-yl]phenyl}azetidine-1-carboxamide] |  |  | < 23 |  |
| O=C(Nc1ccc(F)c(-n2cc3cc(N4CC(F)(F)C4)cnc3n2)c1)N1CCC1 [Compound 92, N-{3-[5-(3,3-difluoroazetidin-1-yl)-2H-pyrazolo[3,4-b]pyridin-2-yl]-4-fluorophenyl}azetidine-1-carboxamide] |  |  | < 23 |  |
| O=C(Nc1ccc(F)c(-n2cc3cc(-c4ncccc4F)cnc3n2)c1)N1CC(F)C1 [Compound 187, 3-fluoro-N-(4-fluoro-3-(5-(3-fluoropyridin-2-yl)-2H-pyrazolo[3,4-b]pyridin-2-yl)phenyl)azetidine-1-carboxamide] | 1.3 | < 23 |  |  |
| C[C@@H]1CN(c2cnc3nn(-c4cc(NC(=O)N5CC(F)C5)ccc4F)cc3c2)C[C@H](C)O1 [Compound 190, N-(3-{5-[(2R,6S)-2,6-dimethylmorpholin-4-yl]-2H-pyrazolo[3,4-b]pyridin-2-yl]-4-fluorophenyl)-3-fluoroazetidine-1-carboxamide] |  |  | > 50000 |  |
| O=C(Nc1ccc(F)c(-n2cc3cc(N4CCC45COC5)cnc3n2)c1)N1CC(F)C1 [Compound 191, 3-fluoro-N-[4-fluoro-3-(5-{6-oxa-1-azaspiro[3.3]heptan-1-yl}-2H-pyrazolo[3,4-b]pyridin-2-yl)phenyl}azetidine-1-carboxamide] |  |  | < 23 |  |
| COCC1CN(c2cnc3nn(-c4cc(NC(=O)N5CC(F)C5)ccc4F)cc3c2)C1 [Compound 192] |  |  | < 23 |  |
| O=C(Nc1ccc(F)c(-n2cc3cc(N4CC5(CC5)C4)cnc3n2)c1)N1CC(F)C1 [Compound 193, N-[3-(5-{5-azaspiro[2.3]hexan-5-yl}-2H-pyrazolo[3,4-b]pyridin-2-yl)-4-fluorophenyl}-3-fluoroazetidine-1-carboxamide] |  |  | < 23 |  |
| O=C(Nc1ccc(F)c(-n2cc3cc(N4C[C@@H](F)[C@H](F)C4)cnc3n2)c1)N1CC(F)C1 [Compound 194, N-(3-{5-[(3R,4R)-3,4-difluoropyrrolidin-1-yl]-2H-pyrazolo[3,4-b]pyridin-2-yl]-4-fluorophenyl)-3-fluoroazetidine-1-carboxamide] |  |  | < 23 |  |
